{
  "source": "patent US10759754B2",
  "about": "“Aminobenzoic acid derivatives for use as anti-inflammatory agents, anti-metastatic agents and/or anticancer agents” (3R VALO, S.E.C., priority 2016, dated 2020)",
  "key": {"MB49-I tumors": {"tested_on": "MB49-I tumors", "assay": "Ectopic UBC model, MB49-I tumors implanted in the flank of male mice", "type": "in vivo", "method": "(§1) Ectopic UBC model. Male C57BL/6J mice (6-8 weeks old), each weighing 15-18 g, were used for the experiments (supplied by Charles River). The mice were housed with free access to food and water on a 12:12 h light:dark cycle with the room temperature maintained at 21° C. MB49 cells, MB49-I cells, and iNOS-deficient MB49-I cells ([…] in 100 μL PBS) were injected subcutaneously (s.c.) into the right flank of the mice. Growth rates of the s.c. tumors were monitored. The size of tumors was determined every 3 days for 24-28 days using a digital caliper and by measuring luciferin luminescence at days 15 and 25 using the IVIS imaging system. A blinded observer measured tumor length and width. The volume of the tumor was calculated from the formula: Length×width2×0.52, where length and width were tumor diameters measured with calipers in mutually perpendicular directions. At a tumor size of approximately 10 mm^3 the mice were divided into different groups. A control group received PBS as treatment. As indicated, other groups were treated at different doses (90, 150 or 300 μM) with an intraperitoneal (i.p.) injection of compounds 4 or 8 every 3-4 days for 18-20 days.^24,27"}, "NFκB": {"tested_on": "NFκB", "assay": "NFκB-responsive luciferase assay in MB49-I cells", "type": "cell-based, murine", "conditions": "50 μM", "text": "Luciferase assay. To assess the transcriptional activity of NFκB in response to TNFα, MB49-I cells cultured in monolayers (7.5×10^4 cells/well in 24-well plates) were transiently transfected with an expression vector allowing the transcription of the firefly luciferase reporter gene under the control of CMV promoter and tandem repeats of the NFκB transcriptional response element. The luciferase gene encodes a 61-kDa enzyme that oxidizes D-luciferin in the presence of ATP, oxygen, and Mg^++, yielding a […] product that can be quantified by measuring the released light. Transfection was performed using Opti-MEM reduced serum media and Lipofectamine 2000 (Thermo Fisher Scientific). Then, MB49-I cells were pretreated for 30 min with vehicle (DMSO) and compound 4 (at 10 μM or 30 μM); and then washed and recovered after 24 h of activation with 10 ng/mL or 50 ng/mL TNFα. Cell lysates were mixed with Luciferase assay reagent (a mixture of luciferine, coenzyme A, ATP and Mg^2+) and the light produced was measured using a luminometer."}, "MB49 tumors": {"tested_on": "MB49 tumors", "assay": "Ectopic UBC model, non-muscle invasive MB49 tumors in male mice", "type": "in vivo", "conditions": "i.p. 90 and 150 μM", "method": "as §1"}},
  "note": "Entries after “also recorded” stand apart in the source; their conditions may differ.",
  "data": [
    {"smiles": "CC(C)(C)OC(=O)NNC(=O)c1ccc(N2C(=O)C=CC2=O)cc1", "note": "[Compound 4, N′-[4-(2,5-dioxo-2,5-dihydro-pyrrol-1-yl)-benzoyl]-hydrazine carboxylic acid tert-butyl ester]", "values": [
      {"measurement": "histological examination of lung specimens", "setting": "MB49-I tumors; i.p. 150 μM", "value": "no metastatic foci"},
      {"measurement": "number of lung metastases", "setting": "MB49-I tumors; i.p. 150 μM", "value": "significant decrease; also recorded: significantly reduce"},
      {"measurement": "size of subcutaneously implanted MB49-I tumors", "setting": "MB49-I tumors; i.p. 150 μM", "value": "significantly reduce"},
      {"measurement": "tumor development of MB49-I cells subcutaneously implanted", "setting": "MB49-I tumors; i.p. 150 μM", "value": "significant decrease; also recorded: significantly affects"},
      {"measurement": "tumor volume of muscle-invasive MB49-I tumors", "setting": "MB49-I tumors; i.p. 150 μM during 18 days, tumors recovered day 20", "value": "anti-proliferative activity"},
      {"measurement": "NFκB activation (luciferase assay)", "setting": "NFκB", "value": "efficiently inhibited"},
      {"measurement": "size of subcutaneously implanted MB49 tumors", "setting": "MB49 tumors", "value": "significant reduction; also recorded: significantly reduce"}
    ]}
  ]
}
